In the NIST ThermoML archive (doi:10.1021/acs.jced.8b00103):
± gives the expanded uncertainty stated by the source.

Columns and labels:
[1] = Liquid; for mass density: 101 kPa, Vibrating tube method; for vapor or sublimation pressure: Ebulliometric method (Recirculating still)
[2] = refractive index (Na D-line) (dimensionless); details: 293.15 K; 101.33 kPa; Liquid; Standard Abbe refractometry
[3] = xn = mol fraction of the nth substance listed; details: 101 kPa, Liquid, Vibrating tube method

CC(C)CO [2-methyl-1-propanol]
[1]
Details | mass density [kg/m3] | vapor or sublimation pressure [kPa]
333.15 K | 769.49 ± 0.15 | 12.3 ± 0.2
343.15 K | 760.79 ± 0.16 | 21 ± 0.2
353.15 K | 751.86 ± 0.16 | 32.7 ± 0.2

Details | refractive index
[2] | 1.3962 ± 0.0004

CC(C)CO [2-methyl-1-propanol] + CC(C)O
mass density [kg/m3], [3]
Details | 333.15 K | 343.15 K | 353.15 K
x2 = 0 | 769.49 ± 0.15 | 760.79 ± 0.16 | 751.86 ± 0.16
x2 = 0.042 | 768.8 ± 0.15 | 760.07 ± 0.16 | 751.1 ± 0.16
x2 = 0.1428 | 767.1 ± 0.16 | 758.28 ± 0.16 | 749.19 ± 0.16
x2 = 0.1913 | 766.26 ± 0.16 | 757.39 ± 0.16 | 748.25 ± 0.16
x2 = 0.2906 | 764.49 ± 0.16 | 755.53 ± 0.16 | 746.26 ± 0.16
x2 = 0.3911 | 762.62 ± 0.16 | 753.57 ± 0.16 | 744.18 ± 0.17
x2 = 0.4444 | 761.6 ± 0.16 | 752.49 ± 0.16 | 743.03 ± 0.17
x2 = 0.4993 | 760.52 ± 0.16 | 751.36 ± 0.16 | 741.83 ± 0.17
x2 = 0.5485 | 759.52 ± 0.16 | 750.32 ± 0.16 | 740.72 ± 0.17
x2 = 0.594 | 758.58 ± 0.16 | 749.33 ± 0.16 | 739.66 ± 0.17
x2 = 0.6911 | 756.5 ± 0.16 | 747.14 ± 0.17 | 737.33 ± 0.17
x2 = 0.7445 | 755.31 ± 0.16 | 745.88 ± 0.17 | 735.99 ± 0.17
x2 = 0.8481 | 752.91 ± 0.16 | 743.36 ± 0.17 | 733.3 ± 0.17
x2 = 0.8925 | 751.85 ± 0.16 | 742.24 ± 0.17 | 732.1 ± 0.17
x2 = 0.9491 | 750.48 ± 0.17 | 740.78 ± 0.17 | 730.53 ± 0.17

CC(C)O [propan-2-ol]
[1]
Details | mass density [kg/m3] | vapor or sublimation pressure [kPa]
333.15 K | 749.23 ± 0.16 | 38.5 ± 0.3
343.15 K | 739.46 ± 0.17 | 61.1 ± 0.3
353.15 K | 729.1 ± 0.17 | 92.3 ± 0.4

Details | refractive index
[2] | 1.3774 ± 0.0004

CC(C)O [propan-2-ol] + CC(C)CO
[3], x1 = 1
Details | mass density [kg/m3]
333.15 K | 749.23 ± 0.16
343.15 K | 739.46 ± 0.17
353.15 K | 729.1 ± 0.17
